The source of these data is US20120329767A1, “Methods and Compositions for Treating Cancer” (priority 2010, published 2012).

For one data set, the system named is Katto III. As to the kind of experiment: MTT test on Katto III pancreatic cancer line. It is filed as cell-based. The following applies: MTT method, Katto III gastric cancer.
Another data set relates to 3LL. The experiment in a line: MTT test on 3LL lung cancer line. It is filed as cell-based. As to conditions: MTT method. Background: Formazan colour is commonly taken as a measure of viable cells.
A further data set deals with HCT-116 cells. The experiment in a line: MTT test on HCT116 colon cancer cells. Format: cell-based, human. The following applies: MTT method, Table 2.
Another data set has as its system CHOP protein. The experiment in a line: Expression of the CHOP protein, Western blot. Format: cell-based, human. As to conditions: A172 tumour cells treated 6 hours at 5 μM and 10 μM, versus reference compound. The source says: (§1) To determine via which mechanisms of action compounds 8 and 9 could lead to slowing of cell proliferation or to cell death, the activation of two specific markers, the expression of the CHOP protein and phosphorylation of the histone H2AX on the serine site […] were monitored. The CHOP protein has pro-apoptotic properties (induction of cell death). Phosphorylation of the H2AX histone is a marker of DNA damage which leads to activation of p53, a protein having pro-apoptotic properties or the property of slowing cell proliferation.
(§2) In these experiments, the tumour cells A172 were treated for 6 hours with the compounds at two concentrations (5 μM and 10 μM). After the 6 hour treatment time, the cells were lysed and […] of soluble proteins were separated on 12% polyacrylamide gel. After migration, the proteins were transferred onto nitrocellulose using the Western blot technique. The proteins CHOP and H2AX were then detected using specific primary antibodies, themselves recognized by corresponding secondary antibodies whose peroxidase activity was identified using an ECL kit.

The test system of the next data set is U87. The experiment in a line: MTT test on U87 glioblastoma line. Format: cell-based. The following applies: MTT method.
Data set [1] relates to melanoma model F10B16 implanted in Black-6 mice. The experiment in a line: Tumour growth in in vivo melanoma model F10B16. The following applies: F10B16 melanoma in Black-6 mice, twice a week at 7.5 μmol/kg. The source says: To determine the anti-cancer potential of these molecules, we analyzed the effects of compound 8 and compound 9 on tumour growth, using the in vivo melanoma model F10B16 implanted in Black-6 mice. […] The chronic treatments (twice a week at 7.5 μmol/kg) in mice having tumours led to a reduction in tumour growth. This reduction in tumour growth (treated tumour volume/non-treated tumour volume: T/C) was of the order of 80% for compound 8 and 60% for compound 9 (see Table 4 and FIGS. 6 and 7).
In these experiments, the […] cells (200 000 cells) were implanted sub-cutaneously in Black-6 mice aged 8 weeks. Groups of 6 mice per condition were formed. The treatments were started when the tumours were palpable with a volume of the order of 100 mm^3.

For a further data set, the system named is histone H2AX. The experiment in a line: Phosphorylation of histone H2AX, Western blot. Format: cell-based, human. As to conditions: A172 tumour cells treated 6 hours at 5 μM and 10 μM, versus reference compound.
Source text: as §1, §2

In the next data set the test system is Black-6 mice. As to conditions: Black-6 mice aged 8 weeks, single dose, intraperitoneal, followed up over 15 days.
The next data set relates to HCT116 cells. As to the kind of experiment: Cell cycle profile by FACS after propidium iodide staining. Format: cell-based, human. As to conditions: HCT116 cells treated 48 h at 1 μM and 5 μM. The text has this:
The effect of compounds 8 and 9 on the cell profile was studied using the FACS technique (Fluorescence Activated Cell Sorter i.e. the association of a flow cytometer and a cell sorter) after staining the cells with propidium iodide to visualize the quantity of cell DNA. These analyses allow visualization of the cell cycle phase at which the cells accumulate subsequent to treatment with the compounds of the invention, and possibly whether cell death by apoptosis has been induced.
In this experiment, the HCT116 cells were treated for 48 h at the indicated doses (1 μM and 5 μM). After a treatment time of 48 h, the cells were washed three times with PBS (phosphate buffer saline) and fixed in 90% ethanol. The cells were then stained with a solution of propidium iodide/RNase. The stained cells (10 000 per sample) were then counted using a FACScan flow cytometer and CellQuest software (Becton Dickinson) to determine the DNA content and the profile of the cell cycle.
For orientation: Flow cytometry measures light scatter and fluorescence of single cells or particles in a stream.

Another data set relates to Fadu. As to the kind of experiment: MTT test on Fadu head & neck cancer line. It is filed as cell-based. The following applies: MTT method.
The next data set deals with A2780. The experiment in a line: MTT test on A2780 ovarian cancer line. It is filed as cell-based. The following applies: MTT method.
The next data set concerns A-172 cells. The experiment in a line: MTT test on A172 glioblastoma cells. Format: cell-based, human. As to conditions: 48 h treatment, A-172 glioblastoma cells, Table 1.
The next data set concerns N2A. The experiment in a line: MTT test on N2A neuroblastoma line. Format: cell-based. As to conditions: MTT method.

Like-named read-outs stand apart in the source and are kept apart here. Bounds are passed on as bounds.

Protocol for A-172 cells: Cisplatin was chosen as cytotoxic agent for comparison. As first approach, a MTT test was used to measure the activity of a mitochondrial enzyme which gives an estimation of the number of cells.
The experiments were performed under a vertical laminar flow hood. The cell growth medium was composed of DMEM (Dulbecco's Modified Eagle's Medium), HEPES, 10% FCS (Foetal Calf Serum), 5% PS (Penicillin, Streptomycin) and was stored at +4° C., and PBS (Phosphate Buffer Saline, pH=7.4). […] MTT (4,5-dimethylthiazol-2-diphenyltetrazolium bromide) is a yellow solid produced by Aldrich. It was placed in sterile aqueous solution at a concentration of 5 mg/ml and stored at +4° C. It was diluted to 10% in the cell culture medium when used as staining agent of the living cells.
(§3) When they were sufficiently numerous (70% confluence) they were washed in PBS at ambient temperature then mixed with 1.5 mL of Trypsin-EDTA to detach them from the Petri dish. […] After 48 hours, the medium was replaced by a MTT solution at 37° in the medium, which was placed in the incubator for at least one hour or until violet crystals derived from the complexing of MTT were formed quantitatively at the bottom of each well. […] The optical density of the solutions obtained was read off. […]
Protocol for HCT-116 cells: A human glioblastoma line (A172) and a colon cancer line (HCT116) were used to test the cytostatic effects of the compounds according to the invention. Cisplatin was chosen as cytotoxic agent for comparison. As first approach, a MTT test was used to measure the activity of a mitochondrial enzyme which gives an estimation of the number of cells.
The experiments were performed under a vertical laminar flow hood. The cell growth medium was composed of DMEM (Dulbecco's Modified Eagle's Medium), HEPES, 10% FCS (Foetal Calf Serum), 5% PS (Penicillin, Streptomycin) and was stored at +4° C., and PBS (Phosphate Buffer Saline, pH=7.4). […] MTT (4,5-dimethylthiazol-2-diphenyltetrazolium bromide) is a yellow solid produced by Aldrich. […]
as §3
The IC50 values (μM) were determined for each of the lines and compared with the values obtained for a reference ruthenium derived compound.

In general, IC50 refers to the midpoint of a concentration-inhibition curve. Low readings indicate greater potency, high ones weaker potency. For orientation: LD50 means the dose at which mortality reaches 50%. Read a low LD50 as a more toxic substance. With `CC#[N+][Ru-4]123([c]4c(cc(C)cc4-c4cccc[n+]41)-c1cccc[n+]12)[n+]1cccc2ccc4ccc[n+]3c4c21.F[P-](F)(F)(F)(F)F` [Compound (9)], the IC50 with Katto III fell in the range of 0.1 to 1 µM; with 3LL it was 0.1 to 1 µM; with HCT-116 cells, 0.1 to 1 µM; in the data set with U87, 1 to 2 µM; with Fadu, 0.1 to 1 µM; in the data set on A2780, 0.1 to 1 µM. In addition, the results for the IC50 in the data set with A-172 cells and in the data set on N2A were 0.6 to 1 µM and 0.1 to 1 µM, respectively. In addition, in the data set with CHOP protein, the “Induction of expression of the CHOP protein” value was “more efficient”. For the same compound, the “T/C (reduction in tumour growth; treated tumour volume/non-treated tumour volume)” value is on record as 58% in [1] (listed as Compound 9) and approximately 60% in data set [1] (listed as compound 9). In the data set on histone H2AX, the “Phosphorylation of the histone H2AX on the serine site 137” value is given as “more efficient”. In addition, the LD50 in the data set on Black-6 mice (listed as Compound 9) and in the data set with Black-6 mice (listed as compound 9) was more than 60 µmol/kg in each case. For the same compound, in the data set on HCT116 cells, the “Profile of the cell cycle” value is “induce a halt in the cell cycle at phase G1 or cell death”.

Consider `CC#[N+][Ru-4]123([c]4c(cc(C(=O)OC)cc4-c4cccc[n+]41)-c1cccc[n+]12)[n+]1cccc2ccc4ccc[n+]3c4c21.F[P-](F)(F)(F)(F)F` [Compound (8)], for which the IC50 is 1 to 2 µM in the data set with Katto III; 1 to 2 µM in the data set with 3LL; 1 to 2 µM with HCT-116 cells; 1 to 2.5 µM in the data set on U87; 1 to 2 µM in the data set on Fadu; 1 to 2 µM in the data set on A2780. Besides, the IC50 with A-172 cells was in the range of 1.5 to 1.9 µM; with N2A it was 1 to 2 µM. In addition, in the data set with CHOP protein, the “Induction of expression of the CHOP protein” value was “more efficient”. The “T/C (reduction in tumour growth; treated tumour volume/non-treated tumour volume)” value in data set [1] (listed as Compound 8) is given as 81%; in [1] (listed as compound 8), approximately 80%. The “Phosphorylation of the histone H2AX on the serine site 137” value in the data set on histone H2AX was “more efficient”. The LD50 in the data set on Black-6 mice worked out at 22.5 µmol/kg. The “Profile of the cell cycle” value in the data set on HCT116 cells is “induce a halt in the cell cycle at phase G1 or cell death”.
